Data from the kinase profiling compilation of Christmann-Franck et al. (2016).

How the values were obtained:
Experiment in all cases: KINOMEscan competition binding
Conditions in all cases: compound 1.0 µM
[1] = biological target: SRPK2 (human) (UniProt P78362)
[2] = biological target: EPHB2 (human) (UniProt P29323)
[3] = biological target: DCLK1 (human) (UniProt O15075)
[4] = biological target: SRMS (human) (UniProt Q9H3Y6)
[5] = biological target: GRK1 (human) (UniProt Q15835)
[6] = biological target: CDK5 (human) (UniProt Q00535)
Chain of CDK5 (human) (Q00535 whole entry, looked up): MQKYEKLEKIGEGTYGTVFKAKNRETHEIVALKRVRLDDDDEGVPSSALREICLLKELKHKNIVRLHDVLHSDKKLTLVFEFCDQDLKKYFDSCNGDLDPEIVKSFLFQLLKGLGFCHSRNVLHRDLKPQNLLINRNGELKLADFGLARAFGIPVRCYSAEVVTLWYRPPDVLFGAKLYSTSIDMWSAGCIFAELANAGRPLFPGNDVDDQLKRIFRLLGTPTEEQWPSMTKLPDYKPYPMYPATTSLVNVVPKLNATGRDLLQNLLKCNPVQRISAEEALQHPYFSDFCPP

[7] = biological target: MAPK10 (human) (UniProt P53779)
[8] = biological target: RIPK4 (human) (UniProt P57078)
[9] = biological target: MARK1 (human) (UniProt Q9P0L2)
[10] = biological target: RIPK2 (human) (UniProt O43353)
[11] = biological target: ERBB3 (human) (UniProt P21860)
Chain of ERBB3 (human) (P21860 whole entry, looked up): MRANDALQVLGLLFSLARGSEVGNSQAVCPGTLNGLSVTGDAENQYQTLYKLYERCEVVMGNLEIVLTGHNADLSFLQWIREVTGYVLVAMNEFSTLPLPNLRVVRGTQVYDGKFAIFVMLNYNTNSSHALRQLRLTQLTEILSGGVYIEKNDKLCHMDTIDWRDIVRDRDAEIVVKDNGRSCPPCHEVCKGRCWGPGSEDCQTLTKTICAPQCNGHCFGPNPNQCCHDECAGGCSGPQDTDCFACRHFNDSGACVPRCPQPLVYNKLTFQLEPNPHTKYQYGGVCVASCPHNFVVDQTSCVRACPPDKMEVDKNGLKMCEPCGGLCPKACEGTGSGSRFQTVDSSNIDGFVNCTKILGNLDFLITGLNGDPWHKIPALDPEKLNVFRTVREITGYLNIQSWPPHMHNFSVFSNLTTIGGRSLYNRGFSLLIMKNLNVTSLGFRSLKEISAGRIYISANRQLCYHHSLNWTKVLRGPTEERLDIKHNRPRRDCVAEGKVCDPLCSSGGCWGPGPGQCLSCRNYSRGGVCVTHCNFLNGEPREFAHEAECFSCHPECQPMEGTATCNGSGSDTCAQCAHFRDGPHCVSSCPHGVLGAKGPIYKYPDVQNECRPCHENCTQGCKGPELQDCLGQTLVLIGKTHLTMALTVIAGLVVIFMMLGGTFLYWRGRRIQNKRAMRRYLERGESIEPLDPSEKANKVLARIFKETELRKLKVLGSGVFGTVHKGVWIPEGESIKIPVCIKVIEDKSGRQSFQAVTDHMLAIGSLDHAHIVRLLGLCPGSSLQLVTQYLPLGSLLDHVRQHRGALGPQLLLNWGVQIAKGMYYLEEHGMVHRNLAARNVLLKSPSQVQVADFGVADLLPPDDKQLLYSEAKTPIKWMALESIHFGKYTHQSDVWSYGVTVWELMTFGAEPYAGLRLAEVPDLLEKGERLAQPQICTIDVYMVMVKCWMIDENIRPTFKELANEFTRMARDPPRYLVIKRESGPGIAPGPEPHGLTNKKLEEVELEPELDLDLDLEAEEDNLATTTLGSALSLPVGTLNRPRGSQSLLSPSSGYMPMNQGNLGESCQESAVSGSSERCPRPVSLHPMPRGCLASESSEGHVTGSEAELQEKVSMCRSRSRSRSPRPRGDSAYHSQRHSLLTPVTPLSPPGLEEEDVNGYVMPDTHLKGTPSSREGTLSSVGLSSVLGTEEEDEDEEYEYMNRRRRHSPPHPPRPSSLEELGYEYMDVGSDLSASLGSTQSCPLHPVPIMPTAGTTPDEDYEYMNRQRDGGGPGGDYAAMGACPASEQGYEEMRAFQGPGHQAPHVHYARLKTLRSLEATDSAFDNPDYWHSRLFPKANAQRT

[12] = biological target: CDK14 (human) (UniProt O94921)
[13] = biological target: CDK9 (human) (UniProt P50750)
Chain of CDK9 (human) (P50750 whole entry, looked up): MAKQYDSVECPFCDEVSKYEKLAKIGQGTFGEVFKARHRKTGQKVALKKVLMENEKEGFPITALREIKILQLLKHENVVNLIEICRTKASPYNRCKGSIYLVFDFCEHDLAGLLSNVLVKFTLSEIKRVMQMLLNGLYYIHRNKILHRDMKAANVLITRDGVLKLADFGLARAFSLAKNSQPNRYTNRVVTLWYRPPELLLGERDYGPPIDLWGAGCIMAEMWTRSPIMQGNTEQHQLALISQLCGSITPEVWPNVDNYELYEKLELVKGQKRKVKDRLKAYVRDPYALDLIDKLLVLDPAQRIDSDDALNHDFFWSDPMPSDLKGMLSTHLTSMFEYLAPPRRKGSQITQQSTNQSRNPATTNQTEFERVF

[14] = test system: RET (human), P07949 [V804L]
[15] = biological target: TTK (human) (UniProt P33981)
[16] = biological target: NEK5 (human) (UniProt Q6P3R8)
Chain of NEK5 (human) (Q6P3R8 whole entry, looked up): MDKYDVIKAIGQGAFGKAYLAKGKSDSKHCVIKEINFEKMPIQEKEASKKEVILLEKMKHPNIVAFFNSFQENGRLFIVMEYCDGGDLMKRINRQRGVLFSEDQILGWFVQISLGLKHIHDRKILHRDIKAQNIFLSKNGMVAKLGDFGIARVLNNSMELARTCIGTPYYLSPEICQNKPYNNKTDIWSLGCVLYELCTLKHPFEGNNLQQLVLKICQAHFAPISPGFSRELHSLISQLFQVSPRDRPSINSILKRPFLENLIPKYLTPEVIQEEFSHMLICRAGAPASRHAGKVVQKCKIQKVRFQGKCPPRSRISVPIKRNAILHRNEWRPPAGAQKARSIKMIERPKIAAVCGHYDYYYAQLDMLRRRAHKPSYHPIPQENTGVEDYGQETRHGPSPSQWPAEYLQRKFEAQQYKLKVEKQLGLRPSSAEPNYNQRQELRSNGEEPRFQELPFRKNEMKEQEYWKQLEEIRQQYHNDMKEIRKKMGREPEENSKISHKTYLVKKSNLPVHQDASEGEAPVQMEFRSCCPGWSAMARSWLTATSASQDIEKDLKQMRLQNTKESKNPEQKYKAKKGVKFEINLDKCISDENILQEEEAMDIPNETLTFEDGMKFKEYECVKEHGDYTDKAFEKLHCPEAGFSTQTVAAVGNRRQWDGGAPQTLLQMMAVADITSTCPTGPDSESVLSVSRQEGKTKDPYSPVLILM

[17] = biological target: BLK (human) (UniProt P51451)
[18] = biological target: NTRK1 (human) (UniProt P04629)
[19] = biological target: PLK3 (human) (UniProt Q9H4B4)
[20] = biological target: EIF2AK2 (human) (UniProt P19525)
[21] = biological target: MAP3K1 (human) (UniProt Q13233)
[22] = biological target: MAPK11 (human) (UniProt Q15759)
[23] = biological target: RIOK2 (human) (UniProt Q9BVS4)
[24] = biological target: STK32B (human) (UniProt Q9NY57)
[25] = biological target: TYK2 JH1 catalytic (human) (UniProt P29597)
[26] = test system: EGFR (human), P00533 [747-751 del / S ins]
[27] = biological target: FRK (human) (UniProt P42685)
[28] = biological target: MAP3K12 (human) (UniProt Q12852)
[29] = biological target: YSK4 (human) (UniProt Q56UN5)
[30] = test system: KIT (human), P10721 [V559D/T670I]
[31] = biological target: TGFBR1 (human) (UniProt P36897)
[32] = biological target: MAP2K2 (human) (UniProt P36507)
[33] = biological target: IKBKE (human) (UniProt Q14164)
[34] = biological target: CLK3 (human) (UniProt P49761)
Chain of CLK3 (human) (P49761 whole entry, looked up): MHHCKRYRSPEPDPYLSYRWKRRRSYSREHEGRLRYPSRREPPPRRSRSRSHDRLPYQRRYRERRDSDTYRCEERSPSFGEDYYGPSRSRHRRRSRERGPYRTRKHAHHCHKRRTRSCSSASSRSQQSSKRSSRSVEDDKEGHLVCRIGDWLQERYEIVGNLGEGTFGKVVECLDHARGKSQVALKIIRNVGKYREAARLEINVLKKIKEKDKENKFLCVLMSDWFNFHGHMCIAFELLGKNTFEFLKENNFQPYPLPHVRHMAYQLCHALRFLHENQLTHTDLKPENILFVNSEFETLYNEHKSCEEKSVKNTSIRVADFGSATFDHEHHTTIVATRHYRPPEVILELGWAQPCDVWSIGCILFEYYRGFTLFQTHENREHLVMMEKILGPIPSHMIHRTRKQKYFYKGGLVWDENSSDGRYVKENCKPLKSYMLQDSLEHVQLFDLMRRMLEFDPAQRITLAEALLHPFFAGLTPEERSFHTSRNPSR

[35] = biological target: LYN (human) (UniProt P07948)
[36] = biological target: MET (human) (UniProt P08581)
[37] = biological target: PRPF4B (human) (UniProt Q13523)
[38] = biological target: MAPK7 (human) (UniProt Q13164)
[39] = biological target: DYRK2 (human) (UniProt Q92630)
[40] = biological target: RPS6KA1 KD2 (human) (UniProt Q15418)

Chain of EPHB2 (human) (P29323 whole entry, looked up): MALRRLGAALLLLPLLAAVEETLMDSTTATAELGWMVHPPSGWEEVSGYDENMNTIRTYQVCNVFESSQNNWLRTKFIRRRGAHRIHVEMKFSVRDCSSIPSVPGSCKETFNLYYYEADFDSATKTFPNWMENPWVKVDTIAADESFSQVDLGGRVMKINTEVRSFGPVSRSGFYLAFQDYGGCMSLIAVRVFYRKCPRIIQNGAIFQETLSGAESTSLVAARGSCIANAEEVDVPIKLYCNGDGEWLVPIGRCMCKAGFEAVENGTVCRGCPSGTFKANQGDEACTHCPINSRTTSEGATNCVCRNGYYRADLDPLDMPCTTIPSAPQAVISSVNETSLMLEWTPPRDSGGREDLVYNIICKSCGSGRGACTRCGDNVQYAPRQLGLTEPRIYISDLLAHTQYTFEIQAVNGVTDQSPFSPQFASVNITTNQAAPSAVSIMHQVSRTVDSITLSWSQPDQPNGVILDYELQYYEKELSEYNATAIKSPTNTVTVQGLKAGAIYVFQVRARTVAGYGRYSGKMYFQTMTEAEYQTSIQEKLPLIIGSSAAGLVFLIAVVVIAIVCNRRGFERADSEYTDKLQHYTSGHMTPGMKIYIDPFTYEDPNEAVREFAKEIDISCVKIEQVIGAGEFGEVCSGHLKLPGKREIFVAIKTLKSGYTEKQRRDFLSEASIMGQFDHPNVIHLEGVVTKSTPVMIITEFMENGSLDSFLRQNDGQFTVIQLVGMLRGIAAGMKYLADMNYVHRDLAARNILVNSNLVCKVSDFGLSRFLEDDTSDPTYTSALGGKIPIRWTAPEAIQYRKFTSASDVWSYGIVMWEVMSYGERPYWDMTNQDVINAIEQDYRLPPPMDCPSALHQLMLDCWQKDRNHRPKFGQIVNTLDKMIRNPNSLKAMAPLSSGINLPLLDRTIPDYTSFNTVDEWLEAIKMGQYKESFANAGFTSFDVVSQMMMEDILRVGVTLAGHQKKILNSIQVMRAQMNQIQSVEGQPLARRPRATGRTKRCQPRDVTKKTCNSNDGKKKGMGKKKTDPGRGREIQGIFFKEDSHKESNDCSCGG
Chain of DCLK1 (human) (O15075 whole entry, looked up): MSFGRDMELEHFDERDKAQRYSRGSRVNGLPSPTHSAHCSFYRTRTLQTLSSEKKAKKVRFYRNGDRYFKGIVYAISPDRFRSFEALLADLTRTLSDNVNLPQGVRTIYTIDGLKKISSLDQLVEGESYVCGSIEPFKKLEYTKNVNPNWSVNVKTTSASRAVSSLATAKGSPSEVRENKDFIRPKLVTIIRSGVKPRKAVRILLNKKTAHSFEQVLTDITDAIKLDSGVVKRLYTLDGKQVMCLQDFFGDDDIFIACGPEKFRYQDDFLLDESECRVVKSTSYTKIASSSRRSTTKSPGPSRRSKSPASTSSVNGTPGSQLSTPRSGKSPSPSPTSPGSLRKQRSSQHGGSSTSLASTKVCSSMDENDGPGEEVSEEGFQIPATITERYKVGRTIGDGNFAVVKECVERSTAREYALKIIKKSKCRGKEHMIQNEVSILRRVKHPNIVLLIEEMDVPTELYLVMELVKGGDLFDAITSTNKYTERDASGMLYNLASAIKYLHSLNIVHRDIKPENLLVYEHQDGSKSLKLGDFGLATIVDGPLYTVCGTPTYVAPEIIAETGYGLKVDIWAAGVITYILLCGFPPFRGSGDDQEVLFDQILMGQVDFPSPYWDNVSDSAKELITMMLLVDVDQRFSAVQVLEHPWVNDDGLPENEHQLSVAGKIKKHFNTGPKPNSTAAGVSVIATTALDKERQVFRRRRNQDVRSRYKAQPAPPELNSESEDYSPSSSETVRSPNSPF

Structure (SMILES): Nc1cc(C(F)(F)F)c(-c2cc(N3CCOCC3)nc(N3CCOCC3)n2)cn1
- inhibition of binding [1]: 27%
- inhibition of binding [2]: 0%
- inhibition of binding [3]: 7%
- inhibition of binding [4]: 0%
- inhibition of binding [5]: 0%
- inhibition of binding [6]: 0%
- inhibition of binding [7]: 17%
- inhibition of binding [8]: 0%
- inhibition of binding [9]: 0%
- inhibition of binding [10]: 0%
- inhibition of binding [11]: 22%
- inhibition of binding [12]: 27%
- inhibition of binding [13]: 12%
- inhibition of binding [14]: 12%
- inhibition of binding [15]: 7%
- inhibition of binding [16]: 0%
- inhibition of binding [17]: 0%
- inhibition of binding [18]: 4%
- inhibition of binding [19]: 0%
- inhibition of binding [20]: 19%
- inhibition of binding [21]: 0%
- inhibition of binding [22]: 0%
- inhibition of binding [23]: 0%
- inhibition of binding [24]: 11%
- inhibition of binding [25]: 0%
- inhibition of binding [26]: 4%
- inhibition of binding [27]: 0%
- inhibition of binding [28]: 0%
- inhibition of binding [29]: 21%
- inhibition of binding [30]: 0%
- inhibition of binding [31]: 4%
- inhibition of binding [32]: 0%
- inhibition of binding [33]: 0%
- inhibition of binding [34]: 29%
- inhibition of binding [35]: 0%
- inhibition of binding [36]: 12%
- inhibition of binding [37]: 4%
- inhibition of binding [38]: 0%
- inhibition of binding [39]: 20%
- inhibition of binding [40]: 23%
